The target in series [1] is T1, MDR-1 gene product (P-glycoprotein) (Homo sapiens, UniProt P08183).
T1 construct: endogenous in cells; host or cells: Kelly
The series is described as follows: Functional MDR-1 assay with JC-1 in Kelly cells (flow cytometry). In kind it is cell-based. As to conditions: Kelly cells, 10^−4 mol/l, 15 min. How it is done: By means of an assay using JC-1, MDR-1 activity was assessed in Kelly cells, which express MDR-1. JC-1 is a cationic staining dye which is taken up by living cells. JC-1 is recognized by the MDR-1 gene product (P-glycoprotein) and pumped to the outside of the cell (substrate efflux). Thus, MDR-1 activity is indicated by a reduction in intracellular JC-1 signal.
Kelly cells grown in RPMI medium were washed and resuspended at a concentration of 10^6 cells/ml in solutions containing JC-1 in a final concentration of 50 nmol/l. […] The control contained 1 μl (0.05%) DMSO. Cells were analysed for JC-1 staining in a FACScanto II flow cytometer.
A general note: Flow cytometry measures light scatter and fluorescence of single cells or particles in a stream.

For series [2] the following is noted: mouse, in vivo.
In series [3] the test system is NSX2 tumour xenografts. The series is described as follows: NSX2 tumour xenograft model. As to conditions: mice bearing NSX2 tumour xenografts (MDR-mediated etoposide-resistant). Type of series: in vivo. From the text:
The lack of cross-resistance to CAP7.1 of MDR-mediated etoposide-resistant cell lines in vitro was confirmed in vivo in mice bearing NSX2 tumour xenografts.

Series [4] concerns the target T2, CES2 (Homo sapiens, UniProt O00748).
T2 sequence (O00748 27-559): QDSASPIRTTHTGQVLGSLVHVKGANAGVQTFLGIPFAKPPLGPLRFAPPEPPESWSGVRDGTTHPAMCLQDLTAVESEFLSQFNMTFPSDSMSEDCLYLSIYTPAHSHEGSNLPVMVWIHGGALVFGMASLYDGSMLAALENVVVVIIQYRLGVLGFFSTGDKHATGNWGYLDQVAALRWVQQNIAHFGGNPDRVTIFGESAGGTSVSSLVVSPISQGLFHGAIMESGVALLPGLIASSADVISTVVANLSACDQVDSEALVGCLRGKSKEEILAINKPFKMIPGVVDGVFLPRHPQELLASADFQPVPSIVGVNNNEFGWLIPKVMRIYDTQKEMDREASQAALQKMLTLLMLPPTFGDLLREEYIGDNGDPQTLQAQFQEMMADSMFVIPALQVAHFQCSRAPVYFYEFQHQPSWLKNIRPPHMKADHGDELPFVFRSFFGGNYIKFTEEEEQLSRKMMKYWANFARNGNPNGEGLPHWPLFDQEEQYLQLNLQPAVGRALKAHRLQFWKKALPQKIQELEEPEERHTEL
In words: Conversion of CAP7.1 to etoposide by CES2 (HPLC). Particulars: 5 μM CAP7.1, sodium phosphate pH 7.4, 37° C. Type of series: in vitro ADME. As for the experimental part:
5 μM CAP7.1 was pre-incubated for 3 min in 999 μl 0.1 mol/l) sodium phosphate (NaH2PO4, Roth, Karlsruhe, Germany) pH 7.4 at 37° C. After that, CES1, CES2 and CES3, respectively, were added. Controls were incubated with 10% foetal calf serum (FCS, positive control) or in buffer (negative control). At different time points, aliquots were subjected to HPLC in order to analyse the formed products.

The test system of series [5] is HT-29 cells. In words: Cytotoxicity on HT-29 cells (XTT). In kind it is cell-based. Particulars: cell viability (XTT). As for the experimental part: HT-29 cells, which are not multidrug-resistant, were grown in DMEM, 10% foetal calf serum, 2 mM glutamine and […] Pen/Strep medium and then washed.
Cells were harvested, counted, and inoculated at the appropriate concentration of 10^4 cells/well (100 μl volume) into 96-well microtiter plates. After 24 h, the drugs were applied to triplicate culture wells, and cultures were incubated for given times at 37° C. XTT was prepared at 1 mg/ml in pre-warmed (37° C.) medium (RPMI 1640) without serum. PMS was prepared at 5 mmol/l (1.53 mg/ml) in PBS. Fresh XTT and PMS were mixed together at appropriate concentrations. For a 25 μmol/l XTT-PMS solution, 25 μl of the 5 mmol/l PMS solution were added per 5 ml of XTT (1 mg/ml). 50 μl of this mixture were added to each well on given time points after cell inoculation. After incubation at 37° C., the plates were mixed on a mechanical plate shaker, and absorbance was measured with an ELISA Reader to determine cell viability.

The nature of series [6]: Animal toxicity profile. As to conditions: animals.
In series [7] the target is P-glycoprotein (Homo sapiens, UniProt P08183). The series is described as follows: P-glycoprotein substrate behaviour. In kind it is cell-based.
P-glycoprotein, sequence (P08183 whole entry): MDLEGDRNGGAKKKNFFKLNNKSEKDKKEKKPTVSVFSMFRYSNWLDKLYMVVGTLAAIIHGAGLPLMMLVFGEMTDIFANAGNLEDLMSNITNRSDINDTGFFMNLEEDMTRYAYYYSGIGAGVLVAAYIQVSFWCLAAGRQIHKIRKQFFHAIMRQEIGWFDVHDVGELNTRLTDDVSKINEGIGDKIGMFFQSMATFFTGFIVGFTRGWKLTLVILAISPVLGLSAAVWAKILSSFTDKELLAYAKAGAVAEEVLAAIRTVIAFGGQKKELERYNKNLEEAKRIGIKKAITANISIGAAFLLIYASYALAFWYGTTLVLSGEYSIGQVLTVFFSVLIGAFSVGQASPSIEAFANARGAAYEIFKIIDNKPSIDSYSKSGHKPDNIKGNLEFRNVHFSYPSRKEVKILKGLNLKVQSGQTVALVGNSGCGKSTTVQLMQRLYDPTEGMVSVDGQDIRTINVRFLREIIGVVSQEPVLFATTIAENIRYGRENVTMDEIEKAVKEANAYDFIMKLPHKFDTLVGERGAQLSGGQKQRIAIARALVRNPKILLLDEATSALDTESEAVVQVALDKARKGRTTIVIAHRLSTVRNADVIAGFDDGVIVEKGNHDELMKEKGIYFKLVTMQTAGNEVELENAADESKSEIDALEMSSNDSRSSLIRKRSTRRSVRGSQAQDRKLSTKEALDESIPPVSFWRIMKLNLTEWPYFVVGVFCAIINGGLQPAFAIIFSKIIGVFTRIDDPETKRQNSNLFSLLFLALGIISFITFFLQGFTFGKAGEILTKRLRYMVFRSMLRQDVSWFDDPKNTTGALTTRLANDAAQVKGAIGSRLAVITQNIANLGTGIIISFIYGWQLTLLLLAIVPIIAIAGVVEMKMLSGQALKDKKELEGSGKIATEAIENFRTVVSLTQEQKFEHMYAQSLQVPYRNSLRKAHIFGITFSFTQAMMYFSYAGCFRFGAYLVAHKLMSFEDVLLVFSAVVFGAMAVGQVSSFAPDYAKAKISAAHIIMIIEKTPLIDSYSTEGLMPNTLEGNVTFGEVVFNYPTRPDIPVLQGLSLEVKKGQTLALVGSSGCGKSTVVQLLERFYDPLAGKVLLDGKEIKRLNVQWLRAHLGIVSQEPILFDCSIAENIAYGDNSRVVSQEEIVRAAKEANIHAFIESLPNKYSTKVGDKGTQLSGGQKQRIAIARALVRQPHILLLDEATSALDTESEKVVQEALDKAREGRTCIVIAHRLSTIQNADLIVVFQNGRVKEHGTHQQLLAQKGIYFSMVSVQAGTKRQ
Series [8] deals with advanced neuroblastoma. The series is described as follows: Combination therapy with carboplatin in children with advanced neuroblastoma. Type of series: in vivo, human. As for the experimental part:
(§1) CAP7.1 was administered with carboplatin to three children with heavily pre-treated advanced neuroblastoma.
(§2) Cycles were repeated every 21 days and a total of 4 cycles were administered in each patient. Toxicity was mainly haematological, grade 1-2 at 200 mg/m^2 and increased to grade 3-4 in the rest of the cycles, but cycle delay due to toxicity was not necessary.

Test in series [9]: as above
Type of series: in vivo, human. As to conditions: human; plasma, one of the children treated. How it is done: as §1, §2

T1 sequence (P08183 whole entry): as above

What is called Cmax is the highest concentration seen after dosing. As a reminder, the half-life is how long it takes for the measured level to halve. As for `COc1cc([C@@H]2c3cc4c(cc3C(OC3OC5COC(C)OC5C(O)C3O)C3COC(=O)[C@@H]32)OCO4)cc(OC)c1OC(=O)OCC(O)CO` (some centres unmarked) [CAP7.1], in [1], the “intracellular JC-1 signal versus DMSO control (MDR-1-mediated substrate efflux)” value was “increased”. Further, in [2], the LD10 is 360 mg/m^2. Moreover, the “tumour growth compared to control” value in [3] is “clear inhibition of tumour growth”. The “cleavage of CAP7.1 to etoposide by CES2” value in series [4] is recorded as “as efficiently as the positive control FCS”. The “IC50 value of CAP7.1 lower than IC50 value of etoposide” value in series [5] stood at 10 fold. In addition, in [6], the “main toxicity at sublethal dose” value was “bone marrow suppression affecting predominantly neutrophils and red cells”; the weight loss entry is listed as “do not”. Moreover, the tooth damage result in [6] (high dose group) is on record as “reversible tooth damage”. Moreover, the “substrate for P-glycoprotein / efflux from cells” value in [7] was “not a substrate for P-glycoprotein”. The haematological toxicity grade in series [8] (CAP7.1 200 mg/m^2 day 1 with carboplatin 150 mg/m^2 days 2-5) is 1-2 grade. The haematological toxicity grade in series [8] (rest of the cycles (CAP7.1 400, 600 and 800 mg/m^2) with carboplatin) is given as 3-4 grade. The tumour response result in series [8] (two of the three patients, with carboplatin) was “evidences of tumour shrinkage”. In [9], the Cmax turned out to be 3700 ng/mL and the half-life fell in the range of 12 to 30 min.
